Experimental data from patent US10058493B2, “Oral care compositions and methods of use” (COLGATE-PALMOLIVE COMPANY, priority 2016, dated 2018).
Entries after “also recorded” stand apart in the source; their conditions may differ.

How the values were obtained:
Parameters in all cases: species or system human
[1] = Buffering effect on pH of saliva following acid challenge with dilute hydrochloric acid; settings: 0.01 M HCl 6 mL; for acid buffering effect / pH of treated saliva after acid exposure: 20 min; for acid buffering effect: room temperature, Donors 1-3; for pH of treated saliva after acid exposure: all donors
Description: (§1) Aqueous solutions containing arginine and zinc salts were created to carry out the following Examples. Solution 1 was prepared by mixing L-arginine (0.375 g), zinc oxide (ZnO, 0.25 g), and zinc citrate trihydrate (0.125 g) in deionized water (24.25 mL). These values correspond to the following percentages by mass: 1.5% L-arginine, 1% ZnO, 0.5% zinc citrate trihydrate. Additional control solutions were prepared of each regent alone at equal concentrations. Each solution was diluted to 25 g total mass with deionized water.
Paraffin-stimulated whole saliva was collected from three healthy subjects (Donors 1-3). Each saliva sample was mixed by ordinary means in the art. Immediately prior to analysis, the ex-vivo saliva samples were pretreated with aliquots of the simple solutions to give a range of active dilutions (i.e., total Zn^2+ concentration of about 0-1500 ppm) including an untreated control. The concentrations of actives (i.e., zinc oxide/zinc citrate/arginine, L-arginine, zinc oxide, zinc citrate) were varied between 0.0% to 50% across all samples, as shown in FIGS. 5-10.
An initial pH of the treated sample was obtained. Dilute hydrochloric acid (HCl, 0.01 M, 6 mL) was added to each saliva sample. The resultant was mixed for 20 minutes at room temperature. The pH of the sample was recorded at the conclusion of the reaction time. Zinc concentration in each sample was determined by ICP-AES.

[2] = Buffering effect on pH of saliva following sucrose challenge (bacterial acid production); settings: for effect on pH drop after sucrose challenge versus untreated control: Donors A-C, range of concentrations, 2, 4, 6 hours and overnight
Description: as §1
Paraffin-stimulated whole saliva was collected from three healthy subjects (Donors A-C). Each saliva sample was mixed by ordinary means in the art. Prior to analysis, the ex-vivo saliva samples were pretreated with aliquots of the simple solutions to give a range of active dilutions (i.e., total Zn^2+ concentration of about 0-3000 ppm) including an untreated control in order to test for buffering effect against sucrose challenge as a function of zinc concentration. An initial pH of the treated sample was obtained. A sucrose solution (5%, 1 mL) was added to each saliva sample. The resultant was mixed for and then incubated at 37° C. and the pH was monitored at 2 hours, 4 hours, 6 hours, and overnight. Zinc concentration in each sample was determined by ICP-AES.
Further experiments were conducted to ensure that zinc oxide/zinc citrate/arginine, not its constituent parts, was needed to achieve the buffering capacity improvement described. The solutions tested were prepared according to the specifications as laid out in Table 3 above.

[3] = Buffering effect on pH of saliva following acid challenge with cola beverage; settings: cola titration; 0.0625% reagent; FIG. 2
Description: as §1
Paraffin-stimulated whole saliva was collected from a healthy subject. Each saliva sample was mixed by an appropriate means. Immediately prior to analysis, the ex-vivo saliva samples were pretreated with aliquots of Solution 1 to give a range of active dilutions. A control sample containing untreated whole saliva was also prepared for comparison. The dilutions were prepared as in Table 2.
The samples as described in Table 2 were tested for buffering effect on the pH of saliva following acid challenge with a cola beverage. Initial pH values of the treated samples were obtained. A cola beverage (1 mL) was added to the saliva sample. The resultant was mixed for 30 seconds at room temperature at the conclusion of which the pH of the sample was recorded. This process was repeated step-wise up to a total of 40 mL of cola. […]

[4] = Buffering effect on pH of saliva following acid challenge with orange juice; settings: 0.0625% reagent in saliva (Table 3); FIG. 4
Description: as §1
Four solutions containing whole saliva and zinc oxide/zinc citrate/arginine at varying proportions were prepared in accordance with the methods laid out in Example 1 above. The solutions contained the same concentrations as Samples 1-4 as defined in Table 2. The samples were tested for buffering effect on the pH of saliva following acid challenge with orange juice. Initial pH values of the treated samples were obtained. Orange juice (0.1 mL) was added to the saliva sample. The resultant was mixed for 30 seconds at room temperature at the conclusion of which the pH of the sample was recorded. This process was repeated step-wise up to a total of 3.0 mL of orange juice. After this point, orange juice was added to the samples in an amount of 0.5 mL up to 5.0 mL. […]

With [O]=[Zn] [zinc oxide] the acid buffering effect ([1]; FIGS. 5-7) was “some pH stabilization; also recorded: not showing a dose response above 0.1% treatment”, the “pH of treated saliva after acid exposure” value [1] was “lower in saliva treated with ZnO than zinc oxide/zinc citrate/arginine treated saliva” and the “effect on pH drop after sucrose challenge versus untreated control” value [2] was “Buffering effects were clearly observed over the untreated control of each of the donors”.

In the case of N=C(N)NCCC[C@H](N)C(=O)O [arginine, L-arginine], the “shift of isoelectric point in comparison to the untreated sample” value [3] is reported as “acid shifted the isoelectric point in comparison to the untreated sample providing no acid neutralization benefit”, the “amount of solution able to match the buffering effect of 200 μL or less zinc oxide/zinc citrate/arginine” value ([1]; FIGS. 5-7) is reported as greater than 500 µL and the “buffering effect of the 100 ppm arginine solution” value ([2]; donor C, FIG. 14) is reported as “modest buffering was observed”. The “buffering effect of the 100 ppm arginine solution” value ([2]; donors A or B, FIGS. 12-13) was “not seen”.

With O.O.O.O=C([O-])CC(O)(CC(=O)[O-])C(=O)[O-].O=C([O-])CC(O)(CC(=O)[O-])C(=O)[O-].[Zn+2].[Zn+2].[Zn+2] [zinc citrate, zinc citrate trihydrate] the “shift of isoelectric point in comparison to the untreated sample” value [3] was “acid shifted the isoelectric point in comparison to the untreated sample providing no acid neutralization benefit”, the acid buffering effect ([1]; FIGS. 5-7) was “little to no buffering effect at all” and the “pH of treated saliva after acid exposure” value [1] was “below 4.0”. The “effect on pH drop after sucrose challenge versus untreated control” value [2] was “Buffering effects were observed over the untreated control of each of the donors” and the “ability to buffer the acidic orange juice compared with controls” value [4] was “no benefit in comparison the untreated control”.
